Values quoted from earlier work, collected in patent US20120251462A1, “Agent For Smoker Dehabituation” (Cognis IP Management GmbH, priority 2011, published 2012).

Test system: nACh receptors
Conditions: exceeds affinity of nicotine

Clc1ccc(C2CC3CCC2N3)cn1 (stereo not shown) [Epibatidin]
affinity for nACh receptors relative to nicotine: 120 fold
